Drawing on patent publication US11076597B2, “High stress resistant plant growth regulator and preparation method and use thereof” (SHANGHAI INSTITUTES FOR BIOLOGICAL SCIENCES, CHINESE …, priority 2015, dated 2021), this text covers EC50, growth after drought and survival/growth after drought for six molecules.

Experiment [1] concerns the target T1, PYL1 receptor-HAB1 protein phosphatase complex (Arabidopsis thaliana, UniProt Q8VZS8).
T1 construct: made in house; host or cells: E. coli BL21 (DE3)
T1 sequence (Q8VZS8 36-211): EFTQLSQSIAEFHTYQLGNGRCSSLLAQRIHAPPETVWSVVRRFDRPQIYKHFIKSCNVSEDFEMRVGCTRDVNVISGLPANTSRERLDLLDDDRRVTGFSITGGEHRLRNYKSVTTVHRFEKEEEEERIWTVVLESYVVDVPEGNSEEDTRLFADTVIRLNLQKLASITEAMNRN
T1 sequence (Q9CAJ0 172-511 partner limits assumed): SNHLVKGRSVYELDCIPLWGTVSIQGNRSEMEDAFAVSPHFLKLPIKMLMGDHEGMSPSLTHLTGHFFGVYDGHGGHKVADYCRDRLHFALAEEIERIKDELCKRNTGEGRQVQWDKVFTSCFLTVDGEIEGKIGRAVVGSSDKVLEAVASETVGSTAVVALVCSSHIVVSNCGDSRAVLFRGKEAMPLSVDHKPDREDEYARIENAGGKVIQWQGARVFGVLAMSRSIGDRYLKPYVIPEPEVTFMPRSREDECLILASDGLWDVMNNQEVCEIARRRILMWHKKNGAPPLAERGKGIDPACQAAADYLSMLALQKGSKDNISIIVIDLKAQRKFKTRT
Description: AlphaScreen assay: promotion of PYL1 receptor binding to PP2C protein phosphatase HAB1. The source says: The construction method of recombinant plasmids for the Arabidopsis thaliana genes PYL1 (amino acid sequence 36-211), PYL2 (amino acid sequence 14-188) with dual tags of 6×His and SUMO sequence and the Arabidopsis thaliana gene HAB1 (amino acid sequence 172-511) with the Biotin tag sequence is described in detail in “A gate-latch-lock mechanism for hormone signaling by abscisic acid receptors” (Nature, Vol 462, 2009). The construction method of recombinant plasmids for PYR1 and PYL7 (whole gene coding sequence) and Soybean GmPYL6 and rice OsPYL2 with dual tags of 6×His and SUMO sequence is the same as that for Arabidopsis PYL2.
The above recombinant plasmid is transformed into competent cell of E. coli BL21 (DE3) (purchased from NEB company), and inoculated into 200 ml of LB liquid medium containing Amp resistance (purchased from OXOID company) and cultured overnight at 37° C. at 200 rpm; and inoculated into 2 L of LB liquid medium containing Amp resistance at a ratio of 1:50-1:100 for an extended culture, and cultured at 37° C., 200 rpm for 3-4 hours, and at a low temperature of 16° C. until OD600 is about 0.8-1.0. Recombinant plasmids for PYR1/PYL1/PYL2/PYL7/GmPYL6/OsPYL2 with dual tags of 6×His and SUMO sequence were induced overnight with 100 μM of IPTG while HAB1 recombinant plasmid with the Biotin tag sequence was induced simultaneously with 100 μM of IPTG and 40 μM of biotin.
After 16 hours of induction, the bacterial solution was centrifuged at 4000 rpm for 20 minutes at 4° C. in a low-speed high-capacity centrifuge, and the bacteria cells were collected. Bacteria cells were resuspended in 50 ml of extraction buffer (containing 20 mM Tris, pH 8.0, 200 mM NaCl and 10% (v/v) glycerol) for per 2 L of bacterial solution and then subjected to pressure-breaking at […] and 4° C. for 3-5 times. The broken cells were subjected to ultracentrifugation, centrifuged at 16000 rpm for 30 minutes, and this process was repeated twice. The supernatant was collected and subjected to an affinity chromatography column. […]

Experiment [2] concerns Arabidopsis thaliana Col-0 ecotype. Description: Soil drought experiment, Arabidopsis. It counts as in vivo. The settings on record: for growth after drought: 5 μM spray, two weeks after the drought, FIG. 12; for survival/growth after drought: 5 μM sprayed once every week, twice in total, four weeks of drought, FIG. 7. The protocol: Seeds of Arabidopsis Col-0 ecotype were sterilized with NaClO and then sown on ½ MS solid medium at 4° C. for 3 days of vernalization. After 6 days of growing, the well-grown seedlings having uniform size were selected and transferred into 8×7×6 cm^3 pots. Each pot was filled with the same weight of soil and same number of plants (six plants) was transferred to reduce experimental error. All the pots were subjected to a short-day culture at 22° C. After two weeks, watering was stopped for drought treatment. A solution containing 0.05% Tween-20 and 5 μM 0224/0706/0715/0428 or 0.05% Tween-20 and 0.05% DMSO (control) was sprayed onto the leaf surface once per week with a spray amount of 2 ml solution/pot. The position of the flowerpot was changed every day during the process of drought to reduce the error caused by environmental factors. During the whole drought period, the solution was sprayed twice in total and photos were recorded after four weeks.
Arabidopsis thaliana Col-0 ecotype that had been growing in the soil for two weeks was stopped watering, the leaf was sprayed with a solution containing 5 μM compound 0224/0706/0715 or 0.05% DMSO (control) once every week during the drought, with a spray amount of 2 ml solution/pot, twice in total and a 0.05% (v/v) surfactant Tween-20 was added to the solution to enhance the penetrating effect of the spray agent on the leaf epidermis. […] The same method was performed for drought treatment and (+)-ABA or 0428-treated Arabidopsis was photographed two weeks after the drought.

The mark [3] stands for this setting: FIG. 2b, 6×His-SUMO-tagged PYL1 (aa 36-211), Biotin-tagged HAB1 (aa 172-511), 100 nM each, pH 7.4, 1.5 h room temperature, read-out: EC50.

“Also recorded” adds a separate entry of the source. Where two headings read alike, the source gives them in different places.

For `CC1=CC(=O)CC(C)(C)[C@@]1(O)/C=C/C(C)=C\C(=O)O` [ABA, Abscisic Acid, reference compound], the response in experiment [1] was half-maximal at 1.2 µM (EC50). The growth after drought entry in experiment [2] was “had no difference from that of plants in the DMSO-sprayed control group”.

For the molecule `CCCN1C(=O)OC(C)c2cc(NS(=O)(=O)Cc3c(F)c(F)c(C)c(F)c3F)ccc21` (centres unmarked) [Compound 0224], in experiment [1] (setting [3]), the EC50 worked out at 0.149 µM. For the same molecule, the survival/growth after drought entry in experiment [2] was “still grows normally; also recorded: still survived”.

For `CCCN1C(=O)OC(C)(C)c2cc(NS(=O)(=O)Cc3c(F)c(F)c(C)c(F)c3F)ccc21` [Compound 0304], the EC50 in experiment [1] (setting [3]) is 0.167 µM.

For the molecule `CCCN1C(=O)OCc2cc(NS(=O)(=O)Cc3c(F)c(F)c(C)c(F)c3F)ccc21` [Compound 0428], the growth after drought result in experiment [2] was “exhibits a better growth condition than that in the control group and that sprayed with ABA; also recorded: significantly better than that of plants in DMSO-sprayed control group and plants sprayed with 5 μM (+)-ABA”.

Consider `CCN1C(=O)OC(C)c2cc(NS(=O)(=O)Cc3c(F)c(F)c(C)c(F)c3F)ccc21` (centres unmarked) [Compound 0706], for which the survival/growth after drought result in experiment [2] is “still grows normally; also recorded: still survived”.

Regarding `Cc1c(F)c(F)c(CS(=O)(=O)Nc2ccc3c(c2)C(C)OC(=O)N3CCCF)c(F)c1F` (centres unmarked) [Compound 0715], in experiment [2], the survival/growth after drought result is reported as “still grows normally; also recorded: still survived”.
